Laboratory results published in ChEMBL document CHEMBL5241090, “A comprehensive overview of β-carbolines and its derivatives as anticancer agents” (Eur J Med Chem, 2021).
Values after ≈ are worked out from the molar mass of the structure shown. Blank lines part the entries; values can stand above or below the compound they belong to.

Legend:
[1] = biological target: T1, Kinesin-like protein KIF11 (Homo sapiens, UniProt P52732); test: Inhibition of KSP (unknown origin)
T1 sequence (P52732 whole entry): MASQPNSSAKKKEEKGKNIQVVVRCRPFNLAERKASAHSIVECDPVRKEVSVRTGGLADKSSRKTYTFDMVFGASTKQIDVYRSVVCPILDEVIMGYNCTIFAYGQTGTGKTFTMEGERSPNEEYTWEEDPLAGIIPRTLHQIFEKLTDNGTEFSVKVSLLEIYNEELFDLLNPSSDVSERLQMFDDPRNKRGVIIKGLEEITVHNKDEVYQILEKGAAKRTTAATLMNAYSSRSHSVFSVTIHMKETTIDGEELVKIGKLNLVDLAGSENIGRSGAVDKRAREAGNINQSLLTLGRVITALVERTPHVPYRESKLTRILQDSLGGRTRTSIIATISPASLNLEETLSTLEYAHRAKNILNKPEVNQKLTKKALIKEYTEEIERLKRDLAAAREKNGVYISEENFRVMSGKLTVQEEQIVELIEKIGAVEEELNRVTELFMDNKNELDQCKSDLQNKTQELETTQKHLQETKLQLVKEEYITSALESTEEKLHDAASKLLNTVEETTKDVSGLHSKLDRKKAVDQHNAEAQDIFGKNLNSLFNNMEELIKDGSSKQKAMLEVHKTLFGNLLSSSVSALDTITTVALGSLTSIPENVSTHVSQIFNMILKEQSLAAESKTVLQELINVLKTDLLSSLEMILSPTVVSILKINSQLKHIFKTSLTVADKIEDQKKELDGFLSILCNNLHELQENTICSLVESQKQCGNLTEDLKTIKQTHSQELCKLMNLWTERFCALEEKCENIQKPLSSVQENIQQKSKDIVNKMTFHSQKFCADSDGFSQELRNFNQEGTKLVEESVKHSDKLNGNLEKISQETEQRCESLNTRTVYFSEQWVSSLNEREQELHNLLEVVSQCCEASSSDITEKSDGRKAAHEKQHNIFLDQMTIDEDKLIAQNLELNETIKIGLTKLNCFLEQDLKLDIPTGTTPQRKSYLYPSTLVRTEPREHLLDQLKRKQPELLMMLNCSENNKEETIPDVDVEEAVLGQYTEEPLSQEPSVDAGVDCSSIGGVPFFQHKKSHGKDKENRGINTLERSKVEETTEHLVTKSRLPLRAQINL

[2] = biological target: T2, DNA topoisomerase 1 (Homo sapiens, UniProt P11387); test: Inhibition of Topoisomerase 1 (unknown origin)
T2 sequence (P11387 whole entry): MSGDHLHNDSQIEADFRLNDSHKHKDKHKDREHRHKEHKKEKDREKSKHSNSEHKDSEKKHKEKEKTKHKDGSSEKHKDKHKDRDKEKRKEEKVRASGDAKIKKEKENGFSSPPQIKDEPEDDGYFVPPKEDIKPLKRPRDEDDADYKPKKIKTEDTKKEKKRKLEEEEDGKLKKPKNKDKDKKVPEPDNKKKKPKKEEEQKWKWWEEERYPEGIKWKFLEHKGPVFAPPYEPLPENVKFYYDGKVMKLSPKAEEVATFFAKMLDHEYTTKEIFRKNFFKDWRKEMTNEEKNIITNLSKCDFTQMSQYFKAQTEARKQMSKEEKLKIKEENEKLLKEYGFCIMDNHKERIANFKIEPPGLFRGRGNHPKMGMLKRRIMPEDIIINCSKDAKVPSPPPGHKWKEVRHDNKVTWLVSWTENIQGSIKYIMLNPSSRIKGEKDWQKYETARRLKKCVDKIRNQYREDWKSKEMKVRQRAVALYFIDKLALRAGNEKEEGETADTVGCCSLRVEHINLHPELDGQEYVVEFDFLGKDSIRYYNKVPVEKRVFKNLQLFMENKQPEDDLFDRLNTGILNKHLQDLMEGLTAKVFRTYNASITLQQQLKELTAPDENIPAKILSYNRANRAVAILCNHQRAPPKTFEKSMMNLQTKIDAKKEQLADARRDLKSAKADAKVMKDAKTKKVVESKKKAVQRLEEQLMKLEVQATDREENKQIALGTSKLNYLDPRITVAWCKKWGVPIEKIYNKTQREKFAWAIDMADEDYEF

[3] = tested on: MG-63; test: Cytotoxicity against human MG-63 cells; assay type: functional, cell-based
[4] = tested on: A549; test: Cytotoxicity against human A549 cells measured after 48 hrs by MTT assay; assay type: functional, cell-based; conditions: A549, 48 h
[5] = tested on: HeLa; test: Cytotoxicity against human HeLa cells measured after 48 hrs by MTT assay; assay type: functional, cell-based
[6] = tested on: SGC-7901; test: Cytotoxicity against human SGC-7901 cells measured after 48 hrs by MTT assay; assay type: functional, cell-based; conditions: SGC-7901, 48 h
[7] = tested on: SMMC-7721; test: Cytotoxicity against human SMMC-7721 cells measured after 48 hrs by MTT assay; assay type: functional, cell-based; conditions: SMMC-7721, 48 h
[8] = tested on: MCF7; test: Cytotoxicity against human MCF7 cells by MTT assay; assay type: functional, cell-based
[9] = Cytotoxicity against human Lu1 cells; assay type: functional, cell-based
[10] = tested on: LNCaP; test: Cytotoxicity against human LNCaP cells; assay type: functional, cell-based
[11] = tested on: TERT-RPE1; test: Cytotoxicity against human TERT-RPE1 cells; assay type: functional, cell-based; conditions: RPE-1
[12] = tested on: HUVEC; test: Cytotoxicity against human HUVEC cells; assay type: functional, cell-based
[13] = tested on: Col2; test: Cytotoxicity against human Col2 cells; assay type: functional, cell-based
[14] = tested on: COLO 205; test: Cytotoxicity against human COLO 205 cells measured after 24 hrs by MTT assay; assay type: functional, cell-based; conditions: COLO 205, 24 h
[15] = tested on: A549; test: Cytotoxicity against human A549 cells measured after 24 hrs by MTT assay; assay type: functional, cell-based; conditions: A549, 24 h
[16] = tested on: A2780; test: Cytotoxicity against human A2780 cells measured after 24 hrs by MTT assay; assay type: functional, cell-based; conditions: A2780, 24 h
[17] = tested on: MCF7; test: Cytotoxicity against human MCF7 cells measured after 24 hrs by MTT assay; assay type: functional, cell-based; conditions: MCF7, 24 h
[18] = tested on: HT-1080; test: Cytotoxicity against human HT-1080 cells; assay type: functional, cell-based
[19] = tested on: HepG2; test: Cytotoxicity against human HepG2 cells; assay type: functional, cell-based; conditions: read-out: TC50 (the source's name)
[20] = tested on: Bel7402/5-FU; test: Cytotoxicity against human BEL-7402/5-FU cells measured after 72 hrs by MTT assay; assay type: functional, cell-based
[21] = tested on: SMMC-7721; test: Cytotoxicity against human SMMC-7721 cells measured after 72 hrs by MTT assay; assay type: functional, cell-based; conditions: SMMC-7721, 72 h
[22] = tested on: HCT-116; test: Cytotoxicity against human HCT-116 cells measured after 72 hrs by MTT assay; assay type: functional, cell-based; conditions: HCT-116, 72 h
[23] = tested on: Bel-7402; test: Cytotoxicity against human Bel-7402 cells measured after 72 hrs by MTT assay; assay type: functional, cell-based; conditions: Bel-7402, 72 h
[24] = tested on: Huh-7; test: Cytotoxicity against human Huh-7 cells measured after 72 hrs by MTT assay; assay type: functional, cell-based; conditions: Huh-7, 72 h
[25] = tested on: OVCAR-3; test: Cytotoxicity against human OVCAR-3 cells by MTT assay; assay type: functional, cell-based
[26] = tested on: HCT-116; test: Cytotoxicity against human HCT-116 cells by MTT assay; assay type: functional, cell-based
[27] = tested on: KB; test: Cytotoxicity against human KB cells assessed as inhibition of growth measured after 1 day by hemacytometer; assay type: functional; conditions: 24 h, read-out: ED50 (the source's name)
[28] = tested on: A549; test: Cytotoxicity against human A549 cells; assay type: functional, cell-based
[29] = tested on: MCF7; test: Cytotoxicity against human MCF7 cells; assay type: functional, cell-based
[30] = tested on: OVCAR-3; test: Cytotoxicity against human OVCAR-3 cells; assay type: functional, cell-based
[31] = tested on: NCI-H187; test: Cytotoxicity against human NCI-H187 cells; assay type: functional, cell-based

- IC50 [1]: 13400 nM
- IC50 [2]: 5800 nM
SMILES: O=C(NNC(=S)Nc1ccc(Br)cc1)c1cc2c([nH]c3ccccc32)c(-c2cccc(O)c2)n1

SMILES: O=C(c1cc2c([nH]c3ccccc32)c(-c2ccccc2)n1)N1CCN(S(=O)(=O)c2ccc(Cl)cc2)CC1
- IC50 [3]: 2800 nM

SMILES: Cc1ccccc1Cn1c2ccccc2c2cc(C(=O)OCCCCCOC(=O)c3cc4c5ccccc5n(Cc5ccccc5C)c4cn3)ncc21
- IC50 [4]: 6930 nM
- IC50 [5]: 6930 nM
- IC50 [6]: 6930 nM
- IC50 [7]: 6930 nM

SMILES: COc1ccc2c3ccnc(C)c3n(CC3CC(c4ccccc4)=NO3)c2c1 (stereo not drawn)
- IC50 [8]: 800 nM

SMILES: COc1cc2c3ccccc3n3c(=O)ccc(n1)c23
- IC50 [9]: 503 nM
- IC50 [10]: 503 nM
- IC50 [11]: 503 nM
- IC50 [12]: 503 nM
- IC50 [13]: 503 nM

SMILES: O=C(c1cc2c([nH]c3ccccc32)c(-c2ccccc2)n1)N1CCN(S(=O)(=O)c2ccccc2)CC1
- IC50 [3]: 590 nM

SMILES: COc1cc2nc(-c3nc(-c4nccc5c4[nH]c4ccccc45)cs3)[nH]c2cc1OC
- IC50 [14]: 340 nM
- IC50 [15]: 720 nM
- IC50 [16]: 1230 nM
- IC50 [17]: 92 nM

SMILES: COc1c(O)ccc2c1c1ccnc3ccc(=O)n2c31
- IC50 [18]: 7200 nM

SMILES: O=C(O)[C@@H](O)Cc1nccc2c1[nH]c1ccccc12
- CC50 [19]: > 50000 nM

SMILES: CN(C)c1ccc(-c2nc(C(=O)NCc3ccc(/C=C/C(=O)NO)cc3)cc3c2[nH]c2ccccc23)cc1
- IC50 [20]: 1840 nM
- IC50 [21]: 1840 nM
- IC50 [22]: 1840 nM
- IC50 [23]: 1840 nM
- IC50 [24]: 1840 nM

SMILES: COc1ccc2c3ccnc(C)c3n(CC(=O)N/N=C/c3ccc(C(C)(C)C)cc3)c2c1
- IC50 [25]: 2500 nM
- IC50 [26]: 5000 nM
- IC50 [8]: 4000 nM

- IC50 [1]: 8730 nM
- IC50 [2]: 7800 nM
SMILES: CSc1nnc(-c2cc3c([nH]c4ccccc43)c(-c3cccc(O)c3)n2)o1

SMILES: COc1cccc2c1c1c(O)cnc3ccc(=O)n2c31
- EC50 [27]: 2 µg/mL (≈ 7.51 µM)

SMILES: CNCC(O)c1ccc(O)c(C2(O)c3ccccc3-[n+]3ccc4c([nH]c5ccccc54)c32)c1 (stereo not drawn)
- IC50 [28]: 27 µg/mL
- IC50 [29]: 27 µg/mL
- IC50 [30]: 27 µg/mL

SMILES: COc1ccc2c3ccnc4c(OC)cc(=O)n(c2c1)c43
- IC50 [18]: 5000 nM

SMILES: COC(=O)c1cc2c([nH]c3ccccc32)c([C@H](C)O)n1
- IC50 [31]: 75100 nM

SMILES: COc1cnc2ccc(=O)n3c4cccc(O)c4c1c23
- EC50 [27]: 2 µg/mL (≈ 7.51 µM)

SMILES: O=C(O)[C@H](O)Cc1nccc2c1[nH]c1ccccc12
- CC50 [19]: 39000 nM
